Results on two compounds are retold here after publication PMC6009867, “Microwave-assisted synthesis and bioevaluation of new sulfonamides” (Journal of Enzyme Inhibition and Medicinal Chemistry, 2017).

Usually CC50 stands for the concentration that lowers cell viability or growth by half. In general, Ki refers to the equilibrium dissociation constant of an inhibitor or competing ligand from its target. Higher therefore signals lower affinity. Broadly, the IC50 is the point on the concentration scale where inhibition reaches its midpoint.

In series [1] the test system is Ca9-22 (human oral squamous cell carcinoma, gingiva). The experiment in a line: Cytotoxicity assay (MTT), Ca9-22 cells. The series is classed as cell-based. Particulars: for TS (C/A): CC50 HGF / CC50 Ca9-22; for times of potency versus 5-FU toward Ca9-22: CC50 ratio to reference 5-FU; for CC50: Homo sapiens, Ca9-22, 48 h, MTT, triplicate wells; for SI Ca9-22: average CC50 of nonmalignant cells / CC50 toward Ca9-22. The procedure: (§1) The cytotoxicity of the compounds were assayed toward human oral squamous cell carcinoma cell lines derived from gingiva tissue (CA9–22) and tongue (HSC-2, HSC-3, HSC-4), and human normal oral cells (gingival fibroblasts, HGF; periodontal ligament fibroblasts, HPLF; pulp cells, HPC) with some minor modifications[16]^,[17]^,[26]^,[30–33]. In brief, cells were cultured in DMEM supplemented with 10% fetal bovine serum (FBS). Cells (2.5 × 10^3 cells/well) were inoculated and incubated for 48 h to achieve complete adherence. Near confluent cells were incubated for a further 48 h in the fresh culture medium containing each test compound (3.12, 6.25, 12.5, 25, 50, 100, 200, 400 μM) or 5-FU (positive control) (7.8, 15.6, 31.2, 62.5, 125, 250, 500, 1000 μM). The viable cell numbers were determined by the MTT method. Cytotoxicity induced by DMSO (0.0078, 0.0156, 0.03125, 0.0625, 0.125, 0.25, 0.5 or 1%) was subtracted from each well. The CC50 values were determined from the dose-response curves. The tumor selectivity (TS) was calculated by the following equation: TS = mean CC50 against normal cells/mean CC50 against cancer cells [shown as (D/B) or (C/A) in Table 1]. A potency selectivity expression (PSE) was calculated by multiplying the reciprocal of average CC50 values toward cancer cell lines and the average SI values toward these cell lines and expressed as a percentage [PSE = (D/B^2) × 100].

For series [2], the system named is HSC-2 (human oral squamous cell carcinoma, tongue). In words: Cytotoxicity assay (MTT), HSC-2 cells. The series is classed as cell-based. Particulars: for CC50: Homo sapiens, HSC-2, 48 h, MTT; for SI HSC-2: average CC50 of nonmalignant cells / CC50 toward HSC-2. The procedure: as §1
Series [3] has as its system HSC-3 (human oral squamous cell carcinoma, tongue). The experiment in a line: Cytotoxicity assay (MTT), HSC-3 cells. The format is cell-based. Particulars: for CC50: Homo sapiens, HSC-3, 48 h, MTT; for SI HSC-3: average CC50 of nonmalignant cells / CC50 toward HSC-3. The procedure:
as §1

Series [4] relates to HSC-4 (human oral squamous cell carcinoma, tongue). In words: Cytotoxicity assay (MTT), HSC-4 cells. The series is classed as cell-based. To be noted: for CC50: Homo sapiens, HSC-4, 48 h, MTT; for SI HSC-4: average CC50 of nonmalignant cells / CC50 toward HSC-4. How it is done:
as §1

The nature of series [5]: Cytotoxicity assay (MTT), HGF cells. The series is classed as cell-based. Particulars: human, gingival fibroblasts (HGF), normal oral cells. How it is done: as §1
Series [6] in a line: Cytotoxicity assay (MTT), HPLF cells. The series is classed as cell-based. Particulars: human, periodontal ligament fibroblasts (HPLF), normal oral cells. The procedure: as §1
Series [7] is described as follows: Cytotoxicity assay (MTT), HPC cells. The series is classed as cell-based. To be noted: human, pulp cells (HPC), normal oral cells. The procedure:
as §1

The test system of series [8] is Human oral squamous cell carcinoma cells. The experiment in a line: Cytotoxicity assay (MTT), mean over four OSCC cell lines. The format is cell-based. To be noted: for CC50: Homo sapiens, mean of Ca9-22, HSC-2, HSC-3, HSC-4, read-out: (B) Mean CC50, human oral squamous cell carcinoma cells; for TS (D/B): mean CC50 normal cells / mean CC50 OSCC cells; for PSE (D/B^2) × 100: potency selectivity expression, expressed as a percentage. The procedure:
as §1

Series [9] can be described thus: Cytotoxicity assay (MTT), mean over three normal oral cells. The series is classed as cell-based. Particulars: human; mean of HGF, HPLF, HPC; read-out: (D) Mean CC50, human normal oral cells. The procedure:
as §1

For the next series, the target named is hCA I (Homo sapiens, UniProt P00915). In words: Carbonic anhydrase inhibition assay (esterase activity, 348 nm), hCA I. To be noted: for Ki: Lineweaver-Burk, three concentrations; for IC50: from activity (%) versus compound plots; for times more potent than AZA toward hCA I: in terms of IC50 values. The format is biochemical.
The target in another series is hCA II (Homo sapiens, UniProt P00918). In words: Carbonic anhydrase inhibition assay (esterase activity, 348 nm), hCA II. The format is biochemical. To be noted: for Ki: Lineweaver-Burk, three concentrations; for IC50: from activity (%) versus compound plots; for times more potent than AZA toward hCA II: in terms of IC50 values.

Chain of hCA I (P00915 whole entry): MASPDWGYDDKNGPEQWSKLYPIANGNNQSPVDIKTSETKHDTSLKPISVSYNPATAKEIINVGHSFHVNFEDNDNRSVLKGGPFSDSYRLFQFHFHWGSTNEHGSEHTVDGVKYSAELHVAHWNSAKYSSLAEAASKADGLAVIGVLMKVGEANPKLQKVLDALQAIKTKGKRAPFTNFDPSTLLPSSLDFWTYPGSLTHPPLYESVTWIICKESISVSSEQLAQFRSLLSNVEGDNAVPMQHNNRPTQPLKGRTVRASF

Take `NS(=O)(=O)c1ccc(N2N=C(c3ccc(Br)cc3)CC2c2ccc(O)cc2)cc1` (centres unmarked) [Compound 13, 4-[5-(4-Hydroxyphenyl)-3-(4-bromophenyl)-4,5-dihydro-1H-pyrazol-1-yl] benzenesulfonamide]: in [1], the “TS (C/A)” value worked out at 1.7, the “times of potency versus 5-FU toward Ca9-22” value was determined as 4.8, half-maximal cytotoxicity (CC50) was put at 20.7 µM and the “SI Ca9-22” value stood at 1.7. In series [2] (CC50 ratio to reference 5-FU, HSC-2), the “times of potency versus 5-FU toward HSC-2” value was determined as 1.2. Also, in series [2], it took 37.7 µM to reach half-maximal cytotoxicity (CC50) and the “SI HSC-2” value worked out at 0.9. Further, in series [3], the CC50 worked out at 34.7 µM and the “SI HSC-3” value stood at 1.0. In [4], the midpoint of cytotoxicity, the CC50, lay at 25.7 µM and the “SI HSC-4” value amounted to 1.4. In addition, the CC50 at 48 h in [5] is 34.7 µM. In addition, the CC50 at 48 h in series [6] was 29.7 µM. In series [7], this compound displayed a CC50 at 48 h of 39.7 µM. In [8], the CC50 is 29.7 µM, the “TS (D/B)” value is recorded as 1.2 and the “PSE (D/B^2) × 100” value is 3.9. In addition, in [9], the CC50 at 48 h came to 34.7 µM. In addition, at hCA I, the Ki stood at 0.00373 ± 0.00091 µM, half-maximal inhibition (IC50) was put at 0.00422 µM and the “times more potent than AZA toward hCA I” value is listed as 45.1. Further, at hCA II, the inhibition constant (Ki) amounted to 0.00456 ± 0.00108 µM, 0.00465 µM corresponded to half-maximal inhibition (IC50) and the “times more potent than AZA toward hCA II” value amounted to 42.9.

Take `NS(=O)(=O)c1ccc(N2N=C(c3cccs3)CC2c2ccc(O)cc2)cc1` (centres unmarked) [Compound 14, 4-[5–(4-Hydroxyphenyl)-3-(thiophen-2-yl)-4,5-dihydro-1H-pyrazol-1-yl] benzenesulfonamide]: in [1], the “TS (C/A)” value was 1.9, the “times of potency versus 5-FU toward Ca9-22” value was determined as 2.2, it took 45.7 µM to reach half-maximal cytotoxicity (CC50) and the “SI Ca9-22” value was determined as 1.8. In series [2], half-maximal cytotoxicity (CC50) was put at 55 µM and the “SI HSC-2” value is given as 1.5. Besides, in series [3], the 50% cytotoxic concentration (CC50) came out at 61.3 µM and the “SI HSC-3” value is recorded as 1.4. In [4], the CC50 came out at 55.3 µM and the “SI HSC-4” value is 1.5. In series [5], this compound gave a CC50 at 48 h of 88.3 µM. The compound also displayed a half-maximal cytotoxic concentration (CC50) at 48 h in [6] of 73 µM. Besides, the CC50 at 48 h in series [7] is 87.3 µM. Also, in [8], the 50% cytotoxic concentration (CC50) was 54.3 µM, the “TS (D/B)” value was 1.5 and the “PSE (D/B^2) × 100” value worked out at 2.8. Besides, in series [9], the cytotoxic concentration (CC50) at 48 h was 82.9 µM. Further, on hCA I, affinity was put at a Ki of 0.00417 ± 0.00093 µM, the IC50 was 0.00513 µM and the “times more potent than AZA toward hCA I” value is reported as 37.1. Also, on hCA II, the Ki stood at 0.00385 ± 0.00057 µM, half-maximal inhibition (IC50) was put at 0.00545 µM and the “times more potent than AZA toward hCA II” value was found to be 36.6.
